Where a SMILES comes first, the peptide text is derived from it. Where no end group is shown, it is not given here. [ ]: non-standard residue; d: D form. Orn = NCCC[C@H](N)C(=O)O

Series [1] concerns S. aureus DSM 1104 SCV. Type of series: cell-based, Staphylococcus aureus. To be noted: for MIC: S. aureus DSM 1104 SCV, Mueller-Hinton broth, 22 h + 2 h resazurin, 37 °C, 5% CO2, three parallels.
Procedure: For the determination of MIC, the standard broth microdilution procedure[45] was used with a slight modification[29]. Since the peptide stock solutions were prepared in 50% ethanol, the first rows of the 96-well microtiter plates were filled with 50 µl of 2 × concentrated Mueller-Hinton broth to reestablish the normal broth concentration after the addition of 50 µl peptide solutions. The MIC was determined as the lowest concentration that inhibited bacterial growth, judging from bacterial respiration in three parallels for each antibiotic. After incubation of the plates for 22 hours, the redox indicator resazurin (Sigma-Aldrich) was added to the wells (20 µl, 80 µM). The plates were incubated another 2 hours at 37 °C and 5% CO2. Respiration was determined as the difference in the absorption at 570 nm to 600 nm, using a microplate reader FLASHScan 550 (Analytik Jena).
Series [2] relates to S. aureus DSM 1104 SCV biofilms. The series is described as follows: Regrowth from pregrown biofilms on hydroxyapatite discs. Type of series: cell-based, Staphylococcus aureus. The conditions noted are these: 30 h on hydroxyapatite discs, 400 µg/ml, 18 h, regrowth 24 h in Todd-Hewitt broth.
Procedure: To characterize the viability of the biofilm cells, HAD with pregrown biofilms were exposed for 18 hours to supra-MBIC90 concentrations of the AMP, and - after washing - were placed into fresh TH broth. This procedure serves to determine possible planktonic regrowth from the cells that survived the treatment.
Biofilms were grown on standardized hydroxyapatite discs (3D Biotek). The discs were placed in 24-well microtiter plates and inoculated with a cell suspension from the overnight stationary culture, grown in Todd-Hewitt broth and diluted to OD550 = 0.2. After 30 hours of growth at 37 °C without agitation, the discs were placed for 18 hours in solutions containing 400 µg/ml of peptides, dissolved in 10% dimethyl sulfoxide and 150 mM sodium phosphate buffer (pH 7.2). For the control experiments and conventional antibiotics, pure sodium phosphate buffer was used. After the treatment, discs were washed with sodium phosphate buffer, placed into 1 ml of Todd-Hewitt broth and incubated at 37 °C with agitation at 200 rpm for 24 hours.
Series [3] deals with human serum albumin (HSA) (Homo sapiens, UniProt P02768). Briefly: HSA binding, biomimetic chromatography. The protocol:
(§1) HPLC was performed on an Agilent 1100 system with an ultraviolet diode array detector. […] Binding measurements were performed using Regis Technologies IAM.PC.DD2 (100 × 4.6 mm), HiChrom Chiralpak-HSA (50 × 3 mm) and HiChrom Chiralpak-AGP (50 × 3 mm) columns. […] Retention times were converted to log k and % binding, using calibration routines described in[72].

The test system of series [4] is α1-acid glycoprotein (AGP). Briefly: AGP binding, biomimetic chromatography. As for the experimental part:
as §1

Series [5] deals with E. faecalis DSM 2570. Type of series: cell-based, Enterococcus faecalis. To be noted: DSM 2570.
Procedure: (§5) MBC was determined directly after the MIC evaluation. The 10 µl samples of all 8 dilution rows in the microtiter plates were spotted on square Mueller-Hinton agar plates and incubated overnight at 37 °C and 5% CO2. The MBC was determined as the concentration at which no bacterial colonies were obtained on the two parallel spotted plates.
Series [6] concerns S. aureus DSM 1104 SCV. Type of series: cell-based, Staphylococcus aureus. To be noted: value in parentheses. As for the experimental part: (§2) This parameter quantifies the ability of the peptides to prevent biofilm outgrowth.
(§3) After co-incubation with peptides at 37 °C and 5% CO2 without agitation for 24 hours, the planktonic cells were washed, and Crystal violet staining was applied.

Series [7] is described as follows: physchem. As for the experimental part:
as §1

Series [8] concerns S. aureus MRSA9. Type of series: cell-based, Staphylococcus aureus. The conditions noted are these: MRSA9.
Procedure: as §5
Series [9] has as its system E. faecalis TRE1. Type of series: cell-based, Enterococcus faecalis. The conditions noted are these: TRE1.
Procedure: as §5
In series [10] the test system is S. aureus MRSA9 SCV. To be noted: Mueller-Hinton broth, 22 h + 2 h resazurin, 37 °C, 5% CO2, three parallels. As for the experimental part:
(§4) For the determination of MIC, the standard broth microdilution procedure[45] was used with a slight modification. Since the peptide stock solutions were prepared in 50% ethanol, the first rows of the 96-well microtiter plates were filled with 50 µl of 2 × concentrated Mueller-Hinton broth to reestablish the normal broth concentration after the addition of 50 µl peptide solutions. The MIC was determined as the lowest concentration that inhibited bacterial growth, judging from bacterial respiration in three parallels for each antibiotic. After incubation of the plates for 22 hours, the redox indicator resazurin (Sigma-Aldrich) was added to the wells (20 µl, 80 µM). The plates were incubated another 2 hours at 37 °C and 5% CO2. Respiration was determined as the difference in the absorption at 570 nm to 600 nm, using a microplate reader FLASHScan 550 (Analytik Jena).
For orientation: The colour change of resazurin is a common sign of viable cells or microbes.

The subject of series [11] is S. aureus MRSA538 SCV. The conditions noted are these: Mueller-Hinton broth, 22 h + 2 h resazurin, 37 °C, 5% CO2, three parallels. As for the experimental part: as §4
Series [12] relates to S. aureus MRSA8 SCV. The conditions noted are these: Mueller-Hinton broth, 22 h + 2 h resazurin, 37 °C, 5% CO2, three parallels. As for the experimental part:
as §4

Series [13] concerns E. faecalis WW6. Type of series: cell-based, Enterococcus faecalis. To be noted: WW6.
Procedure: as §5
In series [14] the test system is S. aureus MRSA4. Type of series: cell-based, Staphylococcus aureus. To be noted: MRSA4.
Procedure: as §5
The subject of series [15] is S. aureus MRSA3. Type of series: cell-based, Staphylococcus aureus. The conditions noted are these: MRSA3.
Procedure: as §5
For series [16], the system named is E. faecium VRE2. Type of series: cell-based, Enterococcus faecium. The conditions noted are these: VRE2.
Procedure: as §5
For series [17], the system named is E. faecium VRE1. Type of series: cell-based, Enterococcus faecium. To be noted: VRE1.
Procedure: as §5
Series [18] concerns Danio rerio embryos. The series is described as follows: Acute toxicity in Danio rerio embryos. Type of series: in vivo. To be noted: zebrafish embryos 72 hpf, E3 medium, heart beat; for 1h LD50: 1 hour exposure; for 3h LD50: 3 hours exposure. As for the experimental part:
Experiments were performed in accordance with the relevant OECD testing guidelines[73] and German animal protection standards. Wild type D. rerio embryos were obtained at the European Zebrafish Resource Center (Karlsruhe). Fertilized eggs (6 hpf) were raised in 4 ml of embryonic medium (E3) at 28 °C until 72 hpf (6-well plate, 20 eggs/well). Embryos were transferred into flat-bottom glass vials (E3, 1 ml, 15–20 embryos/vial). Peptides were added as 20 µl aliquots in 10% dimethyl sulfoxide in serial 2-fold dilutions. Toxicity was expressed as the concentration at which 50% of the embryos were visually observed to die (measured at 1 and 3 hours exposure) by identifying the heart beat.

Series [19] deals with E. faecalis WW4. Type of series: cell-based, Enterococcus faecalis. To be noted: WW4.
Procedure: as §5
Series [20] deals with subtilisin. To be noted: serine protease isolated from B. subtilis; cited from earlier work. From the text:
This intrinsic cell-uptake activity has already been explored in eukaryotic cells to specifically target mitochondria with GS derivatives. In the context of prokaryotic cells, together with the ability to bind certain nucleotides and small phosphorylated molecules[29]–[33], GS thus seems to be capable ...

The subject of series [21] is S. aureus DSM 1104 SCV. Type of series: cell-based, Staphylococcus aureus. To be noted: spotted from MIC plates on Mueller-Hinton agar, overnight, no colonies. The protocol:
MBC was determined directly after the MIC evaluation.

In series [22] the test system is E. faecalis TRE4. Type of series: cell-based, Enterococcus faecalis. To be noted: TRE4.
Procedure: as §5
The test system of series [23] is E. faecalis DSM 2570. To be noted: DSM 2570, 24 h. As for the experimental part:
as §2, §3

Series [24] concerns E. faecalis TRE2. The conditions noted are these: TRE2, 24 h. As for the experimental part:
as §2, §3

The subject of series [25] is S. aureus DSM 1104. The conditions noted are these: DSM 1104, 24 h. The protocol:
as §2, §3

Series [26] concerns E. faecalis WW6. The conditions noted are these: WW6, 24 h. The protocol: as §2, §3
Series [27] deals with S. aureus MRSA8 SCV. The conditions noted are these: value in parentheses. As for the experimental part:
as §2, §3

In series [28] the test system is S. aureus DSM 1104. Type of series: cell-based, Staphylococcus aureus. To be noted: DSM 1104.
Procedure: as §5
Series [29] concerns E. faecalis TRE2. Type of series: cell-based, Enterococcus faecalis. The conditions noted are these: TRE2.
Procedure: as §5
For series [30], the system named is human erythrocytes. Briefly: Haemolysis assay. Type of series: cell-based. To be noted: red cells of human. The protocol:
Haemolytic activity was determined with a serial 2-fold dilution assay. Citrate phosphate dextrose-stabilized human erythrocyte suspensions were obtained from Karlsruhe Municipal Hospital. […] The mixture was pelleted (13 000 rpm, 10 min, 4 °C), and the absorbance of the supernatant was recorded at 540 nm vs. reaction buffer. The extent of haemolysis was related to the action of 0.1% Triton X-100 (100%).

For series [31], the system named is enterococci. Type of series: cell-based, Enterococcus faecalis, Enterococcus faecium. The conditions noted are these: 22 h.

human serum albumin (HSA), sequence (P02768 25-609): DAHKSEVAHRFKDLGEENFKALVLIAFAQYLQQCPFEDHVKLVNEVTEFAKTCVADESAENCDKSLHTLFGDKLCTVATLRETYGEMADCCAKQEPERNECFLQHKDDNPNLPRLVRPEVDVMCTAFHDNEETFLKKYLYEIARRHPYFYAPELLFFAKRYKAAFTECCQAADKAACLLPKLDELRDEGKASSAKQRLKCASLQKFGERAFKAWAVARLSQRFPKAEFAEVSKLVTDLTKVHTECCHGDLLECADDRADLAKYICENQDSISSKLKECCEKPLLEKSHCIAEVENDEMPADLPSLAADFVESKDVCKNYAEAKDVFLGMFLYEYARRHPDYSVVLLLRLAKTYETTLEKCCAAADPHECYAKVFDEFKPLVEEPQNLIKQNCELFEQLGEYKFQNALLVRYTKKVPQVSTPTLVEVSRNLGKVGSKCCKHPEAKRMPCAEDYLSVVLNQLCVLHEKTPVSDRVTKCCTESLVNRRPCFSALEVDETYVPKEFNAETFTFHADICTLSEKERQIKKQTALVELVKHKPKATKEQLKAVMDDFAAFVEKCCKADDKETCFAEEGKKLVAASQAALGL

On to `Cc1onc(-c2ccccc2)c1C(=O)N[C@@H]1C(=O)N2[C@@H]1SC(C)(C)[C@@H]2C(=O)O` [OXA, oxacillin], for which the “Concentration effective against the planktonic cells (SI Table S1)” value in series [1] (DSM 1104 SCV planktonic cells, standard broth microdilution) is 0.25 µg/mL. Also, the “Biofilm regrowth after treatment” value in [2] was “tolerant”.

The term chromatographic logD denotes lipophilicity estimated from chromatographic retention. Low readings indicate lower lipophilicity, high ones higher lipophilicity. `CC(C)C[C@@H]1NC(=O)[C@H](CCCN)NC(=O)[C@H](C(C)C)NC(=O)[C@@H]2CCCN2C(=O)[C@@H](Cc2ccccc2)NC(=O)[C@H](CC(C)C)NC(=O)[C@H](CCCN)NC(=O)[C@H](C(C)C)NC(=O)[C@@H]2CCCN2C(=O)[C@@H](Cc2ccccc2)NC1=O` [GS, gramicidin S] (cyclo(V[Orn]L[dF]PV[Orn]L[dF]P)): in series [3] (Chiralpak-HSA column, 50 mM ammonium acetate pH 7.4, 0–35% 2-propanol gradient, calibrated retention times, UV), the “Bound HSA” value is on record as 97.45%. Besides, in series [3] (Chiralpak-HSA column, pH 7.4, 0–35% 2-propanol gradient, value in parentheses), the “log k HSA” value is reported as 1.44. Besides, in series [4] (Chiralpak-AGP column, 50 mM ammonium acetate pH 7.4, 0–35% 2-propanol gradient, calibrated retention times, UV), the “Bound AGP” value is on record as 92.92%. Further, the “log k AGP” value in series [4] (Chiralpak-AGP column, pH 7.4, 0–35% 2-propanol gradient, value in parentheses) stood at 1.06. The MBC is 8 (7) µg/ml in [5]; 16 (14) µg/ml in [8]; 16 (14) µg/ml in series [9]; 16 (14) µg/ml in [13]; 16 (14) µg/ml in series [14]; 16 (14) µg/ml in [15]. For the same compound, the MBC in series [16] is on record as 8 (7) µg/ml; in series [17], 8 (7) µg/ml; in series [19], 16 (14) µg/ml; in [21], 8 (7) µg/ml; in series [22], 8 (7) µg/ml; in series [28], 8 (7) µg/ml. The MBC in series [29] is 16 (14) µg/ml. For the same compound, the MBIC90 is given as 14 µM in series [6]; 7 µM in [23]; 14 µM in series [24]; 4 µM in series [25]; 14 µM in [26]; 4 µM in series [27]. The chromatographic logD in [7] (pH 2.6) was found to be 1.5; in series [7] (pH 7.4), 3.51; in series [7] (pH 10.5) it was 7.52. In addition, the MIC is 4 (4) µg/ml in series [10], 8 (7) µg/ml in [11], 4 (4) µg/ml in series [12] and 4 (4) µg/ml in [1]. Besides, the “1h LD50” value in series [18] worked out at 8 µg/mL. Besides, the “3h LD50” value in [18] came out at 5 µg/mL. Moreover, the Degradation by protease result in series [20] is on record as “effective in degrading”. Moreover, in [30], the “Haemolysis at 5 μM” value turned out to be 7%. Further, the “Haemolysis at 10 μM” value in [30] came to 54%. Further, in [31], the MIC against enterococci result was “approximately 8 µg/ml”.

As for FVQWFSKFLGRIL-NH2 [TL, temporin L], the “log k HSA” value in series [3] (pH 7.4) is 1.68. In addition, the “log k AGP” value in series [4] (pH 7.4) came out at 1.23. For the same compound, the MBC is reported as 16 (10) µg/ml in series [5]; 32 (20) µg/ml in [8]; 32 (20) µg/ml in series [9]; 32 (20) µg/ml in series [13]; 32 (20) µg/ml in [14]; 32 (20) µg/ml in series [15]. The MBC in [16] was 16 (10) µg/ml; in [17] it was 16 (10) µg/ml; in series [19], 32 (20) µg/ml; in series [22], 32 (20) µg/ml; in [28] it was 16 (10) µg/ml; in [29], 32 (20) µg/ml. In addition, the MBIC90 stood at 20 µM in [6]; 39 µM in series [23]; 78 µM in [24]; 5 µM in series [25]; 78 µM in series [26]; 5 µM in series [27]. For the same compound, the chromatographic logD in [7] (pH 2.6) was 0.65; in series [7] (pH 7.4), 2.92; in series [7] (pH 10.5) it was 4.95. For the same compound, the MIC in series [10], in series [12] and in [1] was 8 (5) µg/ml each time. Moreover, in series [18], the “1h LD50” value amounted to 7 µg/mL. For the same compound, the “3h LD50” value in series [18] worked out at 7 µg/mL. The “Haemolysis at 5 μM” value in series [30] turned out to be 57%. The “Haemolysis at 10 μM” value in series [30] is on record as 99%.
